Source: patent US11999677B2, “Benzylamino-oxoethyl benzamide analogs and methods of use” (The Board of Regents of the University of Oklahoma, priority 2018, dated 2024)
“Also recorded” adds a separate entry of the source. Where two headings read alike, the source gives them in different places.

How the values were obtained:
[1] = Solubility assay: turbidity in water, absorbance at 620 nm; format: physicochemical; conditions: pure H2O with 1% DMSO, 37° C., 1-2 h shaking, absorbance 620 nm; compared with compound 1
Experimental: Aqueous solubility was assessed as the degree of turbidity of compound in aqueous solutions, detected by absorbance at 620 nm. Higher turbidity indicated lower solubility. The experiments were performed in triplicate, with the results as the means±SD of triplicate wells.
Each compound was prepared at concentrations from 40 mM to 0.1 mM in DMSO in a serial-dilution manner. 2 μL of each of the above compound solutions was then dispensed directly to ˜198 μL of pure H2O in a 96-well white clear bottom microplate. Resulting solutions were shaken at 37° C. temperature 1-2 h on a rotary shaker at varying shaking rates to reach equilibrium solubility. The turbidity of the solution was measured using UV-visible spectrophotometry at 620 nm.
We investigated whether the compounds of the present disclosure have improved aqueous solubility. Using a thermodynamic turbidimetric assay we evaluated the aqueous solubility of several of the newly synthesized compounds.

pancreatic β-cells = conditions: cited from earlier work
INS-1 cells = assay: Cell viability assay: INS-1 β-cells co-treated with compound and tunicamycin (Tm), CellTiter-Glo intracellular ATP; format: cell-based, rat; conditions: for Max Activity (%) / Emax: % rescue from Tm (0.15 μg/mL)-induced reduction of INS-1 cell viability, intracellular ATP, 72 h, Tm alone = 0%, DMSO control without Tm = 100%; for EC50: ten 2-fold serial titration points, triplicate, read-out: EC50 (μM), concentration that reaches half-maximal activity for INS-1 cell viability; for Emax: INS1, 72 h, read-out: Max Activity (%); for β-cell protective activity against Tm (in words): INS-1 cells in the presence of Tm
Experimental: INS-1 cells were cultured in RPMI 1640 medium (Corning) supplemented with 10% FBS (Atlanta Biologicals), 10 mM HEPES (Gibco-Life Technologies), 1 mM sodium pyruvate (Corning), 50 μM 2-mercaptoethanol (Sigma-Aldrich), and antibiotics (100 UI/mL penicillin and 100 µg/mL streptomycin; Corning) and maintained in a humidified 5% CO2 atmosphere at 37° C.
INS-1 cells were resuspended in RPMI 1640 medium containing 10% FBS and plated at 5×10^3 cells/(40 μL.well) into white clear bottom 384-well plates (Greiner) using an automated liquid handler (Biotek). After 24 h incubation at 37° C., library compounds were added to the wells at the indicated concentration using a pin-transfer robot (PerkinElmer). Tunicamycin (Tm) in RPMI 1640 medium containing 10% FBS was then added at a final concentration of 0.15 μg/mL. After 72 h, the medium was removed and 20 μL of CellTiter-Glo reagent which measures intracellular ATP levels as an indicator of viability (Promega) was added. Luminescence was measured 10 min later using an Envision plate reader (PerkinElmer).
We designed and synthesized novel benzylamino-oxoethyl benzamide analogs (5a-q, Table 1) and studied their effects on β-cell protection against ER stress. The analogs were tested for the viability of rat INS-1 β-cells in the presence of Tm, a potent ER stress inducer that inhibits N-linked glycosylation of proteins. The maximum activities and the concentrations that reach half-maximal activity (EC50) of the compounds were evaluated by the degree of increase in viability of INS-1 cells co-treated with the compounds in the presence of Tm compared with Tm treatment alone.

[2] = Rattus norvegicus, INS1, INS-1 cells with Tm 0.15 μg/mL

| SMILES | aqueous solubility (turbidimetric, in words) [1] | protective activity for pancreatic β-cells against ER stress (previously shown) (pancreatic β-cells) | Max Activity (%) (INS-1 cells) | EC50 (INS-1 cells; INS-1 cells with Tm 0.15 μg/mL) | Emax (INS-1 cells; Rattus norvegicus) | EC50 (INS-1 cells; [2]) | β-cell protective activity against Tm (in words) (INS-1 cells) |
| --- | --- | --- | --- | --- | --- | --- | --- |
| Cc1ccc(C)c(NC(=O)c2nnn(-c3cccc(Cl)c3C)c2C)c1 [Compound 1, 1-(3-chloro-2-methylphenyl)-N-(2,5-dimethylphenyl)-5-methyl-1H-1,2,3-triazole-4-carboxamide, reference compound] | sub-optimal aqueous solubility; also recorded: poor water solubility | protective activity |  |  |  |  |  |
| Cc1ccc(C)c(CNC(=O)CNC(=O)c2cccc(Cl)c2C)c1 [Compound 5a, 3-Chloro-N-(2-((2,5-dimethylbenzyl)amino)-2-oxoethyl)-2-methylbenzamide] |  |  | 45% | 18 ± 4 µM | 45% | 18.6 µM |  |
| Cc1c(Cl)cccc1C(=O)NCC(=O)NCc1ccccn1 [Compound 5b, 3-Chloro-2-methyl-N-(2-oxo-2-((pyridin-2-ylmethyl)amino)ethyl)benzamide] |  |  | 16% |  | 16% | 38 ± 9 µM |  |
| Cc1c(Cl)cccc1C(=O)NCC(=O)Nc1ccc2nc[nH]c2c1 [Compound 5c, N-(2-((1H-benzo[d]imidazol-6-yl)amino)-2-oxoethyl)-3-chloro-2-methylbenzamide] |  |  |  |  | 0% |  |  |
| COc1ccc(CNC(=O)CNC(=O)c2cccc(Cl)c2C)cc1 [Compound 5d, 3-Chloro-N-(2-((4-methoxybenzyl)amino)-2-oxoethyl)-2-methylbenzamide] |  |  | 55% |  | 41 to 55% | 32 ± 7 µM |  |
| Cc1c(Cl)cccc1C(=O)NCC(=O)NCc1ccc(S(N)(=O)=O)cc1 [Compound 5e, 3-Chloro-2-methyl-N-(2-oxo-2-((4-sulfamoylbenzyl)amino)ethyl)benzamide] |  |  | 52% |  | 41 to 55% | 40 ± 12 µM |  |
| Cc1c(Cl)cccc1C(=O)NCC(=O)NCCc1ccc(O)cc1 [Compound 5f, 3-Chloro-N-(2-((4-hydroxyphenethyl)amino)-2-oxoethyl)-2-methylbenzamide] |  |  | 41% |  | 41 to 55% | 34 ± 8 µM |  |
| Cc1c(Cl)cccc1C(=O)NCC(=O)NCc1ccc(C(F)(F)F)cc1 [Compound 5g, 3-Chloro-2-methyl-N-(2-oxo-2-((4-(trifluoromethyl)benzyl)amino)ethyl)benzamide] | improved water solubility |  | 88% |  | 88% | 13 ± 1 µM |  |
| COc1cc(CNC(=O)CNC(=O)c2cccc(Cl)c2C)ccc1O [Compound 5h, 3-Chloro-N-(2-((4-hydroxy-3-methoxybenzyl)amino)-2-oxoethyl)-2-methylbenzamide] | improved water solubility |  | 100% |  | 100% | 10 ± 2 µM |  |
| Cc1c(Cl)cccc1C(=O)NCC(=O)NCc1cccc(C(F)(F)F)c1 [Compound 5i, 3-Chloro-2-methyl-N-(2-oxo-2-((3-(trifluoromethyl)benzyl)amino)ethyl)benzamide] |  |  | 46% |  | 46% | 32 ± 7 µM |  |
| O=C(CNC(=O)c1ccccc1)NCc1ccc(C(F)(F)F)cc1 [Compound 5j, N-(2-Oxo-2-((4-(trifluoromethyl)benzyl)amino)ethyl)benzamide] |  |  | 35% | 43 ± 11 µM | 35% |  |  |
| CCc1ccc(C(=O)NCC(=O)NCc2ccc(C(F)(F)F)cc2)cc1 [Compound 5k, 4-Ethyl-N-(2-oxo-2-((4-(trifluoromethyl)benzyl)amino)ethyl)benzamide] |  |  | 42% | 45 ± 8 µM | 42% |  |  |
| O=C(CNC(=O)c1ccc(F)cc1)NCc1ccc(C(F)(F)F)cc1 [Compound 5l, 4-fluoro-N-(2-oxo-2-((4-(trifluoromethyl)benzyl)amino)ethyl)benzamide] |  |  | 12% |  | 12% | 41 ± 6 µM |  |
| O=C(CNC(=O)c1cccc(O)c1)NCc1ccc(C(F)(F)F)cc1 [Compound 5m, 3-Hydroxy-N-(2-oxo-2-((4-(trifluoromethyl)benzyl)amino)ethyl)benzamide] | improved water solubility |  | 100% |  | 100% | 0.1 µM |  |
| COc1cc(CNC(=O)CNC(=O)c2cccc(O)c2)ccc1O [Compound 5n, 3-Hydroxy-N-(2-((4-hydroxy-3-methoxybenzyl)amino)-2-oxoethyl)benzamide] |  |  |  |  | 30% | 65 ± 8 µM | significantly compromised activity |
| COc1cc(C(=O)NCC(=O)NCc2ccc(C(F)(F)F)cc2)ccc1O [Compound 5o, 4-hydroxy-3-methoxy-N-(2-oxo-2-((4-(trifluoromethyl)benzyl)amino)ethyl)benzamide] |  |  |  |  | 43% | 29 ± 6 µM | significantly compromised activity |
| Cc1c(Cl)cccc1C(=O)NC(C)C(=O)NCc1ccc(C(F)(F)F)cc1 (stereo not drawn) [Compound 5p, 3-Chloro-2-methyl-N-(1-oxo-1-((4-(trifluoromethyl)benzyl)amino)propan-2-yl)benzamide] |  |  |  |  | 34% | 63 ± 4 µM | significantly less or not active |
| Cc1c(Cl)cccc1C(=O)NC(Cc1ccc(O)cc1)C(=O)NCc1ccc(C(F)(F)F)cc1 (stereo not drawn) [Compound 5q, 3-Chloro-N-(3-(4-hydroxyphenyl)-1-oxo-1-((4-(trifluoromethyl)benzyl)amino)propan-2-yl)-2-methylbenzamide] |  |  | Cytotoxic |  |  |  | significantly less or not active |
